We go through 16 molecules from US20060029995A1, “Novel class of metacaspases” (Vlaams Interuniversitair Instituut Voor Biotechnologie VZW, priority 2003, published 2006).

The assay concerns the target T1, Atmc9 (Arabidopsis thaliana, UniProt Q9FYE1).
T1 construct: it indeed consists of amino acids 184 to 325 (calculated mass 15427 Da); made in house; host or cells: E. coli BL21(DE3), pDEST17, Ni-NTA purified
T1 sequence (Q9FYE1 1-183 limits assumed): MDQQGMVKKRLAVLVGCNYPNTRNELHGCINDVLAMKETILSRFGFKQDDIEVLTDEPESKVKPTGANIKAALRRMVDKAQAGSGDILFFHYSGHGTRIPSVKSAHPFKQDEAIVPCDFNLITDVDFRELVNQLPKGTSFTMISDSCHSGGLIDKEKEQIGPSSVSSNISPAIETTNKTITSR
T1 sequence (Q9FYE1 184-325 limits assumed): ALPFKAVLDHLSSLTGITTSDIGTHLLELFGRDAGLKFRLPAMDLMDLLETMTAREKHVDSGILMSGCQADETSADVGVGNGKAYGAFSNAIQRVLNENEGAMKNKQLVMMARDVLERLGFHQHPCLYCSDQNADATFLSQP
The format is biochemical. The following applies: for inhibition / inactivation of Atmc9: no concentration stated; for inhibition of Atmc9 activity: at the millimolar range. On the procedure:
Assays were performed in 150 μl with 400 ng of purified Atmc9 and 50 μM substrate in an optimized metacaspase 9 assay buffer (50 mM MES pH 5.3, 10% (w/v) sucrose, 0.1% (w/v) 3-[(3-cholamidopropyl)dimethylammonio]-1-propanesulfonate [CHAPS], 10 mM DTT). Time-dependent release of free amido-4-methylcoumarin (AMC) was measured on a Cytofluor 4000 fluorescence microplate reader (PerSeptive Biosystems, Farmingham, Md., USA).
We also assessed the sensitivity of Atmc9 for several protease inhibitors, chelating agents, metal ions, and stabilizing agents in the GKR-ase assay (Table 2). […] To optimize the assay conditions for Atmc9 activity, several stabilizing agents were tested.
Percentage of the activity of recombinant Atmc9 in 50 mM MES (pH 5.3) and 10 mM DTT.

Like-named read-outs stand apart in the source and are kept apart here. Starred links: 1 amine or outer side, 2 acyl side, 3 side chain; linkers in the order of their positions; H or OH if unused. Non-standard residues stand in square brackets, D forms with d. Residues, ends and D or L forms follow the SMILES beside them. *: point of attachment. Sta = CC(C)C[C@H](N)[C@@H](O)CC(=O)O; Isovaleryl = CC(C)CC(=O)*; code Z = not defined here; CO = O=C([*:1])[*:2]; CH2F = FC*

In the case of `CC(C)C[C@H](NC(=O)[C@H]1O[C@@H]1C(=O)O)C(=O)NCCCCN=C(N)N` (relative stereo) [E-64, L-trans-epoxysuccinyl-leucylamide-(4-guanido)-butane], the “inhibition / inactivation of Atmc9” value is listed as “no significant blocking capacity”. Further, the “Activity (%)” value (pH 5.3) came to 92%.

Turning to `CC(C)[C@H](NC(=O)[C@H](CCCNC(=N)N)NC(=O)N[C@@H](Cc1ccccc1)C(=O)O)C(=O)N[C@H](C=O)CCCNC(=N)N` [Antipain] ({Phe-CO}-Arg-Val-Arg-aldehyde), the “Activity (%)” value (pH 5.3) worked out at 13%.

As for `N=C(N)c1ccccc1` [Benzamidine], the “inhibition of Atmc9 activity” value is given as “inhibited”. The “Activity (%)” value (pH 5.3) is given as 22%.

As to `C[C@H](CCC(=O)NCCC[N+](C)(C)CCCS(=O)(=O)[O-])[C@H]1CC[C@H]2[C@@H]3[C@H](O)C[C@@H]4C[C@H](O)CC[C@]4(C)[C@H]3C[C@H](O)[C@]12C` [CHAPS, 3-[(3-cholamidopropyl)dimethylammonio]-1-propanesulfonate], the “Activity (%)” value (pH 5.3) is reported as 127%.

`CC(C)C[C@H](NC(=O)[C@@H](NC(=O)N[C@@H](Cc1ccccc1)C(=O)O)[C@@H]1CCN=C(N)N1)C(=O)N[C@H](C=O)Cc1ccccc1` [Chymostatin]: the “inhibition / inactivation of Atmc9” value was “weak inhibitors”. Moreover, the “Activity (%)” value (pH 5.3) stood at 33%.

Regarding `NC(=O)CI` [Iodoacetamide], the “inhibition of Atmc9 activity” value is “inhibited”. Further, the “Activity (%)” value (pH 5.3) is 8%.

Consider `CC(=O)N[C@@H](CC(C)C)C(=O)N[C@@H](CC(C)C)C(=O)N[C@H](C=O)CCCNC(=N)N` [Leupeptin], for which the “inhibition of Atmc9” value (at concentrations as low as 1 μM) was “strongly inhibited”. In addition, the “Activity (%)” value (pH 5.3) worked out at 1%.

As for `O=S(=O)(F)Cc1ccccc1` [PMSF], the “inhibition / inactivation of Atmc9” value is “no significant blocking capacity”. For the same molecule, under “reagent 1 mM, % of activity of recombinant Atmc9 in 50 mM MES pH 5.3, 10 mM DTT”, the “Activity (%)” value was determined as 86%.

Consider `CC(C)CC(=O)N[C@H](C(=O)N[C@H](C(=O)N[C@@H](CC(C)C)[C@@H](O)CC(=O)N[C@@H](C)C(=O)N[C@@H](CC(C)C)[C@@H](O)CC(=O)O)C(C)C)C(C)C` [Pepstatin] (Isovaleryl-VV[Sta]A[Sta]-OH), for which the “inhibition / inactivation of Atmc9” value is listed as “no significant blocking capacity”. Moreover, the “Activity (%)” value (pH 5.3) was determined as 97%.

As for `OC[C@H]1O[C@@](CO)(O[C@H]2O[C@H](CO)[C@@H](O)[C@H](O)[C@H]2O)[C@@H](O)[C@@H]1O` [Sucrose], the “Activity (%)” value (pH 5.3) turned out to be 121%.

Turning to `Cc1ccc(S(=O)(=O)N[C@@H](Cc2ccccc2)C(=O)CCl)cc1` [TPCK, N^□-tosyl-L-phenylalanyl-chloromethyl ketone], the “inhibition / inactivation of Atmc9” value is recorded as “weak inhibitors”. Besides, the “Activity (%)” value (pH 5.3) turned out to be 35%.

In the case of Aprotinin, the “inhibition / inactivation of Atmc9” value was “no significant blocking capacity”. For the same molecule, the “Activity (%)” value (pH 5.3) came out at 96%.

“Z-DEVD-cmk: caspase inhibitor; cmk, chloromethyl ketone”: where the note is “pH 5.3”, the “Activity (%)” value stood at 94%.

On to “Z-VAD-fmk: caspase inhibitor; fmk, fluoromethyl ketone ({code Z}-Val-Ala-Asp-CH2F; reading uncertain; also: printed as Z-VAD-fmk)”, for which, under “pH 5.3”, the “Activity (%)” value is on record as 87%.

Turning to “Z-YVAD-cmk: caspase inhibitor; cmk, chloromethyl ketone”, under “pH 5.3”, the “Activity (%)” value came out at 100%.

B1: Soybean trypsin inhibitor: protease inhibitor (protein)
chain: DFVLDNEGNPLENGGTYYILSDITAFGGIRAAPTGNERCPLTVVQSRNELDKGIGTIISSPYRIRFIAEGHPLSLKFDSFAVIMLCVGIPTEWSVVEDLPEGPAVKIGENKDAMDGWFRLERVSDDEFNNYKLVFCPQQAEDDKCGDIGISIDHDDGTRRLVVSKNKPLVVQFQKLDKESL
Take B1: the “inhibition / inactivation of Atmc9” value is listed as “no significant blocking capacity”. In addition, the “Activity (%)” value (pH 5.3) came out at 73%.
